Like-named read-outs stand apart in the source and are kept apart here.
How the values were obtained:
[1] = molecular target: T1, human V1a receptor (Homo sapiens, UniProt P37288); assay: Vasopressin V1a receptor binding assay (3H-AVP competition, CHO cells); settings: for inhibition at 10 µM: read-out: V1A binding, mean % inhibition
T1 construct: expressed in transfected cells; host or cells: CHO cells (G418-selected hV1a cell line)
Method: (§1) Data represent Ki values (nM) or mean % inhibition (indicated as %) for exemplary compounds of formula (I) tested versus receptor subtypes.
(§2) The default concentration for primary binding experiments was 10 μM.
Vasopressin V1a Receptor Binding Assay.
A cell line expressing the human Via receptor in CHO cells is used. The hV1a cDNA sequence is described by Thibonnier et al., (1994), and the expression method is the same as described by Morel et al. (1992). The hV1a cell line is grown in alpha-MEM with 10% fetal bovine serum and 250 ug/ml G418 (Gibco, Grand Island, N.Y., USA). For competitive binding assay, hV1a cells are plated into 6-well culture plate at 1:10 dilution from a confluency flask, and maintained in culture for at least two days. Culture medium is then removed, cells washed with 2 ml binding buffer (35 mM Hepes, 0.25% BSA, 1× DMEM, PH=7.0). To each well, 990 μl binding buffer containing 1 nM 3H-AVP is added, followed by 10 μl series diluted Example compounds dissolved in DMSO. All incubations are done in triplicate and dose-inhibition curves consisting of total binding (DMSO) and 5 concentrations (0.1, 1.0, 10, 100, and 1000 nM) of test agents encompassing the IC50. 100 nM cold AVP (Sigma) is used to assess non-specific binding. Cells are incubated for 45 minutes at 37° C., assay mixture is removed and each well is washed three times with PBS (pH=7.4). 1 ml 2% SDS was added per well, plates were let sit for 30 minutes. The whole content of a well is transferred to a scintillation vial. Each well is rinsed with 0.5 ml PBS which is then added to the corresponding vial. Scintillation fluid (Ecoscint) is then added at 3 ml per vial. Samples are counted in a liquid scintillation counter (Beckman LS3801). IC50 values are calculated by Prism Curve fitting software.

[2] = molecular target: V2 receptor (Homo sapiens, UniProt P30518); assay: V2 receptor binding (primary binding at 10 μM and Ki); settings: for inhibition at 10 µM: read-out: V2 binding, mean % inhibition
Method: as §1, §2
(§3) See Examples for further details.

[3] = molecular target: T2, OT receptor (Homo sapiens, UniProt P30559); assay: OT receptor binding (primary binding at 10 μM and Ki); settings: for inhibition at 10 µM: read-out: OT binding, mean % inhibition
T2 sequence (P30559 1-389): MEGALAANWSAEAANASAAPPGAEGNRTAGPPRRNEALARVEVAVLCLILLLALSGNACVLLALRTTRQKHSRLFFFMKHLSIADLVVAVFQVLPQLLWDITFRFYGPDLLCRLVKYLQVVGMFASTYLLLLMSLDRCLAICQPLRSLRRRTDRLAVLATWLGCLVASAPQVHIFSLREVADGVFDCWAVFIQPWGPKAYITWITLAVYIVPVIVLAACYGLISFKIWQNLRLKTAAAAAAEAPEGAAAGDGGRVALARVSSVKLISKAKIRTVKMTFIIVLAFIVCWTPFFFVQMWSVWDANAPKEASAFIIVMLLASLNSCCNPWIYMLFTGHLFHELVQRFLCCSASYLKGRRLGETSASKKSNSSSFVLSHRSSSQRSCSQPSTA
Method: as §2, §3

Sequence of V2 receptor (P30518 whole entry): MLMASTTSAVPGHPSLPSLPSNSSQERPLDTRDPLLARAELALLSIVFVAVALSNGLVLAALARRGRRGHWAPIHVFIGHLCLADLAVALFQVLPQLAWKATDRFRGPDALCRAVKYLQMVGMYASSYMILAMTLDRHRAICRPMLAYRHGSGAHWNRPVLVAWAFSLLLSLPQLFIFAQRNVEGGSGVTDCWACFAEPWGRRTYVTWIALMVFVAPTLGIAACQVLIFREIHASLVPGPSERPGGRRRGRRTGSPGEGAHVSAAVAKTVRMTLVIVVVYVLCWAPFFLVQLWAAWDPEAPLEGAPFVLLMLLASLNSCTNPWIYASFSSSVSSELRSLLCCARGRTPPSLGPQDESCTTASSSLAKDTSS
T1 sequence (P37288 whole entry): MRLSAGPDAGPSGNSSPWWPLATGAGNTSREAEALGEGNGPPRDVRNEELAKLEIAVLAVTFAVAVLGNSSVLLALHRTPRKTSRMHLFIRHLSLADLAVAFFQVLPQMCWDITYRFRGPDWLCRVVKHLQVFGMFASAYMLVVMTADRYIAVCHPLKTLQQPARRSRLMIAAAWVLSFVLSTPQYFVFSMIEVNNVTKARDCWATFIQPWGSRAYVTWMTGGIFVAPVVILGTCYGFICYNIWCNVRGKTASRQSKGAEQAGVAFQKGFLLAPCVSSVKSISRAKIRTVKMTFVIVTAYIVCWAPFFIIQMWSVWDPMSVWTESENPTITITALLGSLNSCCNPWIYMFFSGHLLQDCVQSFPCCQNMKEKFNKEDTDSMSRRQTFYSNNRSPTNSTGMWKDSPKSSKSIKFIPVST

SMILES | Ki [1] | inhibition at 10 µM ([2]; at 10 μM) | Ki ([3]; read-out: OT binding Ki) | Ki [2] | further results
CCN(C(=O)N1CCN(c2ncccc2Cl)CC1)c1ccc(OC)cc1 [Compound 16] | 1160 nM | 12.7% | 2320 nM | – | –
COCCN(C(=O)N1CCN(c2ccccc2C)CC1)c1ccc(OC)cc1 [Compound 4] | 10 nM | 24.5% | 21 nM | – | –
CCN(C(=O)C1CCN(C(=O)OCc2ccccc2)CC1)c1ccc(OC)cc1 [Compound 18] | – | – | – | – | inhibition at 10 µM [1]: 19%; inhibition at 10 µM [2]: 12.8%; inhibition at 10 µM [3]: 2.8%
O=C(OCc1ccccc1)N1CCC(C(=O)N(CC2CC2)CC2CCCO2)CC1 (stereo not drawn) [Compound 15] | – | 12.8% | – | – | inhibition at 10 µM [1]: 19%; inhibition at 10 µM ([3]; at 10 μM): 2.8%
Cc1ccccc1N1CCN(C(=O)N(CC2CC2)CC2CCCO2)CC1 (stereo not drawn) [Compound 5] | 785 nM | 17.7% | 326 nM | – | –
Cc1ccccc1N1CCN(C(=O)N(CC2CC2)c2ccc(Cl)cc2)CC1 [Compound 27] | 1 nM | – | 2.3 nM | 3780 nM | –
COc1ccc(N(CC2CC2)C(=O)N2CCN(c3ccccc3C(F)(F)F)CC2)cc1 [Compound 30] | 11 nM | – | 2.3 nM | 75 nM | –
CCN(C(=O)N1CCN(c2ccccc2C)CC1)c1ccc(OC)cc1 [Compound 2] | 10 nM | 33.6% | 13 nM | – | –
Cc1ccc(N(CC2CC2)C(=O)N2CCN(c3ccccc3C)CC2)cc1 [Compound 26] | 3 nM | – | 4.8 nM | 1860 nM | –
COc1ccc(N(CC2CC2)C(=O)C2CCN(Cc3ccccc3C(F)(F)F)C2)cc1 (stereo not drawn) [Compound 34] | 19 nM | – | – | 542 nM | Ki [3]: 24.5 nM
CCN(C(=O)N1CCCN(c2ncccc2C(F)(F)F)CC1)c1ccc(OC)cc1 [Compound 20] | 851 nM | 33% | 329 nM | – | –

— patent publication US20150376198A1, “MODULATORS OF VASOPRESSIN RECEPTORS WITH THERAPEUTIC POTENTIAL” (priority 2013, published 2015)
